From patent publication US10517952B2, “Nucleophile-triggered degradable materials and methods of making and using the same” (GEORGIA TECH RESEARCH CORPORATION, priority 2014, dated 2019)

Legend:
[1] = Equilibrium swelling, gel fraction and Mc (Flory-Rehner) of PEG-OND hydrogels; type: physicochemical; details: for Mc (apparent molecular weight between elastic crosslinks): calculated with the Flory-Rehner equation from swelling results; for Gel Fraction: mass of dry residue post-swelling/input mass of OND and 4-PEG-SH; for Equilibrium Swelling Ratio: mass post-swelling/mass pre-swelling, deionized water, 4° C., 24 hours, n = 3 gels
Method: The swelling of the PEG-OND hydrogels in deionized water was measured at 4° C. to prevent significant fragmentation during the experiment. […] An independent experiment measuring soluble fraction thiol content yielded results complementing those obtained gravimetrically (Table S3, and related discussion below). With the knowledge that small molecules can readily permeate swollen PEG-OND hydrogels (see below), detecting and modifying residual thiols in gels prepared from divalent linkers 7a and 8 by swelling in the presence of a fluorogenic OND derivative was attempted (FIG. 15, and related discussion below).
200 μL gels were prepared in pH 7.4 100 mM phosphate buffered saline containing 7% DMSO with 3.5 wt % 4-PEG-SH and the corresponding bis-, tris-, and tetra-ONDs to provide a 1:1 thiol to electrophile ratio, and allowed to cure for 20 minutes at room temperature. The mass of the gels after curing was recorded (Meq) before suspending in 5.5 mL of water. The hydrogels were stored at 4° C. during swelling to prevent significant degradation of the network during the experiment. The increase in mass of the gels was monitored periodically by decanting and blotting the gel gently with a kimwipe to remove excess water before weighing. After 24 hours swelling, when swelling had stabilized, the mass of the gel was recorded (Meq). The equilibrium mass swelling ratio was then determined using the following relationship:
After weighing equilibrium-swelled gels to determine equilibrium mass swelling ratio, the gels were freeze-dried and the residual mass was weighed (Mres). It is expected that buffer salts present in the sample when it was formed were removed by the multiple changes of swelling solvent (pure water). The mass of the remaining residue was compared to the input mass (Min) of 4-PEG-SH macromer and OND-based linker. The ratio of the residual mass and the input mass provides the fraction of material by mass incorporated into the hydrogel network (gel fraction), as shown in the following equation: […]
The apparent molecular weight between elastically-productive crosslinks (Mc) was determined from equilibrium swelling data, collected as described in section VII.1 and applying a modified form of the Flory-Rehner equation for networks formed under dilute conditions:
[formula] where Mn is the number average molecular weight for the polymeric macromer (10,000 g/mol), v is the specific volume of the polymer ([…] for PEG) V1 is the molar volume of solvent used for swelling ([…] for water), χ is the polymer-interaction parameter (0.43 for PEG-H2O and assumed constant for the described experiments). V2, and V2, are the volume fraction of polymer in the equilibrium swollen gel and the relaxed gel after curing, respectively, and are calculated as follows:
[formula] where qw is the weight swelling ratio after equilibrium swelling, qF is the weight swelling ratio after curing, ρp is the density of the polymer (1.12 g/cm^3 for PEG), ρwater=ρcure solvent is the density of swelling solvent and solvent during gel formation (1.00 g/cm^3 for water). The weight swelling ratios qw and qF are determined from data gathered in equilibrium swelling experiments using the following relationships:
[formula] where ms is the mass of the gel after equilibrium swelling, mc is the mass of the gel after curing, and md is the mass of the dried gel, or input mass of polymer and crosslinkers.
Using the formulae above, masses of hydrogel samples recorded after equilibrium swelling, curing, and drying were applied to estimate the apparent molecular weight between crosslinks, which are summarized in Table 1 of the main text. The experimentally observed Mc values for gels formed using divalent OND linkers was lower than theoretical ideal value Mc,ideal. This can be explained by the fact that the Mc,ideal values calculated for these gels (entries 1-5 of Table S1) are greater than the entanglement molecular weight for polyethylene glycol (˜4,400 g/mol). […]

[2] = Gelation of 4-PEG-SH with OND linkers, gelation time by inversion test; type: physicochemical; details: neutral water, 17% DMSO, stoichiometric triethylamine added, room temperature
Method: PEG-OND hydrogels were prepared by mixing tetravalent thiol-terminated PEG (4-PEG-SH, Mw˜2,500 Da for each arm) at 3.5 weight percent and multivalent OND linkers at equimolar concentration of thiol and electrophile in phosphate buffer containing 7% DMSO by volume (FIG. 42). The reactions were mixed briefly and the gel was allowed to cure at temperature or 37° C. Gelation time was recorded as the point at which the sample no longer flowed upon inversion of the reaction vessel.
Trial gelations were performed by premixing a solution of linker 7a with four-armed thiol-terminated poly(ethylene glycol) (4-PEG-SH. Mn=10,000) in neutral water containing 17% DMSO by volume. The overall concentration of PEG macromer was varied from 0.4 wt % to 8.3 wt % while maintaining an equimolar ratio of thiol to electrophile. Under these conditions, no gels formed on standing at room temperature for five minutes.
Based on empirical observations made in these trials, subsequent gels were prepared at room temperature from 3.5 wt % 4-PEG-SH solutions in phosphate buffers containing 7% DMSO at equimolar concentrations of thiol and OND electrophile. Mixtures were mixed briefly with a vortex mixer, and the reaction vial was periodically tilted or inverted. Gelation time was recorded when the sample no longer flowed and was self-supporting. […] Gelation time at 37° C. was determined by pre-warming 4-PEG-SH macromer and OND stock solutions in a 37° C. water bath. Gel components were combined and mixed briefly by pipetting, and the sample was held in the water bath. Gelation time was determined by the inversion test, as described above.
The labeled protein solutions prepared as described in the previous section were diluted three-fold with pH 7.4 100 mM phosphate buffer and used to dissolve the 4-PEG-SH macromer at 3.76 wt %. This solution was used in an identical manner as pure 4-PEG-SH solution for the purpose of forming PEG-OND hydrogels (FIG. 45). All samples formed self-supporting hydrogels within 1 min after mixing, as determined by the inversion test.

| SMILES | Mc (apparent molecular weight between elastic crosslinks) [1] [g/mol] | Gel Fraction [1] | Equilibrium Swelling Ratio [1] | 4-PEG-SH concentration giving instantaneous gelation [2] [wt %] |
| --- | --- | --- | --- | --- |
| COC(=O)C1=C(C(=O)OC)C2(CNC(=O)CCCC(=O)NCC34C=CC(O3)C(C(=O)OC)=C4C(=O)OC)C=CC1O2 [Linker 7a, Tetramethyl 1,1′-((glutaroylbis(azanediyl))bis(methylene))bis(7-oxabicyclo[2.2.1]hepta-2,5-diene-2,3-dicarboxylate)] | 4080 ± 57 | 0.91 ± 0.03 | 1.7 ± 0.04 | > 2.5 |
| COC(=O)C1=C(C(=O)OC)C2(CNC(=O)CCCC(=O)NCC34OC(C(C(=O)OC)=C3C(=O)OC)C3OC34)OC1C1OC12 (stereo not shown) [Linker 8, Tetramethyl 1,1′-((glutaroylbis(azanediyl))bis(methylene))bis(3,8-dioxatricyclo[3.2.1.0^2,4]oct-6-ene-6,7-dicarboxylate)] | 3900 ± 93 | 0.97 ± 0.01 | 1.60 ± 0.10 |  |
